These are literature values, as cited in patent US20130345262A1, “METHOD FOR PREVENTION OF STROKE” (BOEHRINGER INGELHEIM INTERNATIONAL GMBH, priority 2012, published 2013).

In the series the test system is patients who have nonvalvular atrial fibrillation. The note with it: patients with nonvalvular atrial fibrillation.

With `CC(=O)CC(c1ccccc1)c1c(O)c2ccccc2oc1=O` (racemic) [warfarin, 3-(α-acetonylbenzyl)4-hydroxycoumarin], the “reduction of the risk of stroke compared to placebo” value is on record as “about 64%”.
